Results taken from patent US20250271426A1, “REDUCTION OF BITTER TASTE OF ACTIVE PHARMACEUTICAL INGREDIENTS AND RELATED ASSAYS AND SCREENING METHODS” (Firmenich Incorporated, priority 2022, published 2025).

Assays:
Assay in all cases: FLIPR calcium assay, cells with promiscuous G protein transfected with bitter receptor cDNA
Type in all cases: cell-based
Settings in all cases: responsive if cellular response of >10% over baseline, Fluo4-AM
[1] = biological target: T1, T2R receptor SEQ ID NO: 2 (S2) (Homo sapiens, UniProt Q9NYW2)
T1 construct: expressed in transfected cells; host or cells: cells expressing a promiscuous G protein (e.g., G16g44)
T1 sequence (Q9NYW2 1-309): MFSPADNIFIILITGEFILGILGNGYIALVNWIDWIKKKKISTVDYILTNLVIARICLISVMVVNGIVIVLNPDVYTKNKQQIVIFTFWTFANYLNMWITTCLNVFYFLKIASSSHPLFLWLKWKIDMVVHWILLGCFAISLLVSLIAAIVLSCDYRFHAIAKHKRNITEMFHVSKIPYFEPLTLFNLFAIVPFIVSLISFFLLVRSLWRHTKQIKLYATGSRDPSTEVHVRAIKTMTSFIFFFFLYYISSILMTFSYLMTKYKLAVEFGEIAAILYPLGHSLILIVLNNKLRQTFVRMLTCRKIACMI
How it was run: (§1)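 Fluo4-AM calcium imaging on FLIPR, agonist added during recording. Host: G16g44 cells, one receptor cDNA per transfection, 28 h culture. Activity cutoff >10% over baseline.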

[2] = biological target: T2, T2R receptor SEQ ID NO: 3 (S3) (Homo sapiens, UniProt Q9NYW0, T156M)
T2 construct: expressed in transfected cells; host or cells: cells expressing a promiscuous G protein (e.g., G16g44)
T2 sequence (Q9NYW0 1-307 T156M): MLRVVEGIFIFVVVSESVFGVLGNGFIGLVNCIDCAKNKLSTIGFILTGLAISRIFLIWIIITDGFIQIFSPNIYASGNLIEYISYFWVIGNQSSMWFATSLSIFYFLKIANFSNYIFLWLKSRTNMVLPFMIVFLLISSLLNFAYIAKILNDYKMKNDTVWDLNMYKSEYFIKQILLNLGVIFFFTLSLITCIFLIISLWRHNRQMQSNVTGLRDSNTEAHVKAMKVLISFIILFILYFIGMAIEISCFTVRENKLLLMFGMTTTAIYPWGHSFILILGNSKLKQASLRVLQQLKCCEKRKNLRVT
How it was run: as §1

[3] = biological target: T3, T2R receptor SEQ ID NO: 4 (S4) (Homo sapiens, UniProt Q9NYV8)
T3 construct: expressed in transfected cells; host or cells: cells expressing a promiscuous G protein (e.g., G16g44)
T3 sequence (Q9NYV8 1-317): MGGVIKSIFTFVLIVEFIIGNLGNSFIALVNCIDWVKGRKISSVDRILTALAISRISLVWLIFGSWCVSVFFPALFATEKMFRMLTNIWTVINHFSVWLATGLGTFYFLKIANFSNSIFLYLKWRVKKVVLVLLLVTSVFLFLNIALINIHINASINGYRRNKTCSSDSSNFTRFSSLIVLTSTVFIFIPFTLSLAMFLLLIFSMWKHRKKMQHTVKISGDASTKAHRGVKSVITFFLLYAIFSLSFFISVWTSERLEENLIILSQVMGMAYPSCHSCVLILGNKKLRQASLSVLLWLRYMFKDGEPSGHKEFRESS
How it was run: as §1

[4] = biological target: T4, T2R receptor SEQ ID NO: 6 (S6) (Homo sapiens, UniProt P59540)
T4 construct: expressed in transfected cells; host or cells: cells expressing a promiscuous G protein (e.g., G16g44)
T4 sequence (P59540 1-309): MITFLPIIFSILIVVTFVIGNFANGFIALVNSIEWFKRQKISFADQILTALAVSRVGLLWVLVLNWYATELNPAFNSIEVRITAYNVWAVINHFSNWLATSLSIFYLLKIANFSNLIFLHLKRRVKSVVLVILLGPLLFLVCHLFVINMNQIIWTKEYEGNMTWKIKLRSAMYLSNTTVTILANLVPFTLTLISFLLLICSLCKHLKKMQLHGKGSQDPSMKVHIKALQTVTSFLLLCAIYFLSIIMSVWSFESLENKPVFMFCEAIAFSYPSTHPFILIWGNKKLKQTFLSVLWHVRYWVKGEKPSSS
How it was run: as §1

[5] = biological target: T5, T2R receptor SEQ ID NO: 1 (S1) (Homo sapiens, UniProt Q9NYW7)
T5 construct: expressed in transfected cells; host or cells: cells expressing a promiscuous G protein (e.g., G16g44)
T5 sequence (Q9NYW7 1-299): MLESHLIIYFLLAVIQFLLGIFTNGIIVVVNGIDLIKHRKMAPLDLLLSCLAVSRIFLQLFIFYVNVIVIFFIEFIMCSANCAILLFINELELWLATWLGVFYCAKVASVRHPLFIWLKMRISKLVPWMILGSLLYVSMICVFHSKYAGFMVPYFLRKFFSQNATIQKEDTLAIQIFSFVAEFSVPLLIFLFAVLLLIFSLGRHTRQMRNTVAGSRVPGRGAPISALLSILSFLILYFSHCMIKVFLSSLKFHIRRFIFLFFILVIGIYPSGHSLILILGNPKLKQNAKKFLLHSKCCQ
How it was run: as §1

[6] = biological target: T6, T2R receptor SEQ ID NO: 5 (S5) (Homo sapiens, UniProt P59534)
T6 construct: expressed in transfected cells; host or cells: cells expressing a promiscuous G protein (e.g., G16g44)
T6 sequence (P59534 18-338): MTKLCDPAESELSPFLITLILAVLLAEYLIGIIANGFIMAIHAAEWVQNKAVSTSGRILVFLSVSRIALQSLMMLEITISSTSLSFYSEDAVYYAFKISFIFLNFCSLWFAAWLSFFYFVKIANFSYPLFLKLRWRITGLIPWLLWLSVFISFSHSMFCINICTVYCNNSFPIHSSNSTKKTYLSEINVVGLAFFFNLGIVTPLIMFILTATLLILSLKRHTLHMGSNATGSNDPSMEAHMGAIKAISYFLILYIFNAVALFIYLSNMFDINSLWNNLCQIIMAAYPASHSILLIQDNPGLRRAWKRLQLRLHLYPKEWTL
How it was run: as §1

SMILES | S2 positive response of T2R receptor to API [1] | S3 positive response of T2R receptor to API [2] | S4 positive response of T2R receptor to API [3] | S6 positive response of T2R receptor to API [4] | S1 positive response of T2R receptor to API [5] | S5 positive response of T2R receptor to API [6]
NCC1(CC(=O)O)CCCCC1 [Gabapentin] | + (a “+” to indicate whether a particular T2R receptor showed a positive response to a particular API) | + (a “+” to indicate whether a particular T2R receptor showed a positive response to a particular API) |  |  |  | 
C[C@H]1O[C@@H](O[C@H]2[C@@H](O)C[C@H](O[C@H]3[C@@H](O)C[C@H](O[C@H]4CC[C@@]5(C)[C@H](CC[C@@H]6[C@@H]5C[C@@H](O)[C@]5(C)[C@@H](C7=CC(=O)OC7)CC[C@]65O)C4)O[C@@H]3C)O[C@@H]2C)C[C@H](O)[C@@H]1O [Digoxin] | + (a “+” to indicate whether a particular T2R receptor showed a positive response to a particular API) | + (a “+” to indicate whether a particular T2R receptor showed a positive response to a particular API) | + (a “+” to indicate whether a particular T2R receptor showed a positive response to a particular API) | + (a “+” to indicate whether a particular T2R receptor showed a positive response to a particular API) |  | 
COc1ccc2nc([S@@+]([O-])Cc3ncc(C)c(OC)c3C)[nH]c2c1 [Esomeprazole] | + (a “+” to indicate whether a particular T2R receptor showed a positive response to a particular API) | + (a “+” to indicate whether a particular T2R receptor showed a positive response to a particular API) | + (a “+” to indicate whether a particular T2R receptor showed a positive response to a particular API) | + (a “+” to indicate whether a particular T2R receptor showed a positive response to a particular API) |  | 
COc1ccc2c(c1)[C@]13CCCC[C@@H]1[C@H](C2)N(C)CC3 [Dextromethorphan] |  | + (a “+” to indicate whether a particular T2R receptor showed a positive response to a particular API) | + (a “+” to indicate whether a particular T2R receptor showed a positive response to a particular API) | + (a “+” to indicate whether a particular T2R receptor showed a positive response to a particular API) | + (a “+” to indicate whether a particular T2R receptor showed a positive response to a particular API) | + (a “+” to indicate whether a particular T2R receptor showed a positive response to a particular API)
CCn1cc(C(=O)O)c(=O)c2cc(F)c(N3CCNC(C)C3)c(F)c21 (centres unmarked) [Lomefloxacin] | + (a “+” to indicate whether a particular T2R receptor showed a positive response to a particular API) |  |  | + (a “+” to indicate whether a particular T2R receptor showed a positive response to a particular API) |  | 
CCCCC(CC)COC(=O)CC(C(=O)OCC(CC)CCCC)S(=O)(=O)O (centres unmarked) [Docusate] | + (a “+” to indicate whether a particular T2R receptor showed a positive response to a particular API) |  | + (a “+” to indicate whether a particular T2R receptor showed a positive response to a particular API) |  | + (a “+” to indicate whether a particular T2R receptor showed a positive response to a particular API) | 
CN(C)CCC(c1ccc(Cl)cc1)c1ccccn1 (centres unmarked) [Chlorpheniramine] |  | + (a “+” to indicate whether a particular T2R receptor showed a positive response to a particular API) | + (a “+” to indicate whether a particular T2R receptor showed a positive response to a particular API) | + (a “+” to indicate whether a particular T2R receptor showed a positive response to a particular API) | + (a “+” to indicate whether a particular T2R receptor showed a positive response to a particular API) | + (a “+” to indicate whether a particular T2R receptor showed a positive response to a particular API)
CCN[C@H]1CN(CCCOC)S(=O)(=O)c2sc(S(N)(=O)=O)cc21 [Brinzolamide] | + (a “+” to indicate whether a particular T2R receptor showed a positive response to a particular API) | + (a “+” to indicate whether a particular T2R receptor showed a positive response to a particular API) |  | + (a “+” to indicate whether a particular T2R receptor showed a positive response to a particular API) | + (a “+” to indicate whether a particular T2R receptor showed a positive response to a particular API) | 
CN(C)CCC(c1ccc(Br)cc1)c1ccccn1 (centres unmarked) [Brompheniramine] |  | + (a “+” to indicate whether a particular T2R receptor showed a positive response to a particular API) | + (a “+” to indicate whether a particular T2R receptor showed a positive response to a particular API) | + (a “+” to indicate whether a particular T2R receptor showed a positive response to a particular API) | + (a “+” to indicate whether a particular T2R receptor showed a positive response to a particular API) | + (a “+” to indicate whether a particular T2R receptor showed a positive response to a particular API)
CCN[C@H]1C[C@H](C)S(=O)(=O)c2sc(S(N)(=O)=O)cc21 [Dorzolamide] | + (a “+” to indicate whether a particular T2R receptor showed a positive response to a particular API) | + (a “+” to indicate whether a particular T2R receptor showed a positive response to a particular API) |  | + (a “+” to indicate whether a particular T2R receptor showed a positive response to a particular API) | + (a “+” to indicate whether a particular T2R receptor showed a positive response to a particular API) | 
